# According to the Kinase Knowledgebase extract (Sharma et al. 2016):
# How the values were obtained:
# PIK3CD (Human) [1] = biological target: PIK3CD (Human) (UniProt O00329); experiment: Assessment of Human B Lymphocyte Function; conditions: b cells
# PIK3CD (Human) [2] = biological target: PIK3CD (Human) (UniProt O00329); experiment: Assessment of Elastase Exocytosis From Neutrophils
# PIK3CG (human) = PIK3CG (human) (UniProt P48736); experiment: Inhibition of PIK3CG Kinase Activity
# PIK3CB (Human) = PIK3CB (Human) (UniProt P42338); experiment: Inhibition of PIK3CB Kinase Activity
# Chain of PIK3CB (Human) (P42338 whole entry, looked up): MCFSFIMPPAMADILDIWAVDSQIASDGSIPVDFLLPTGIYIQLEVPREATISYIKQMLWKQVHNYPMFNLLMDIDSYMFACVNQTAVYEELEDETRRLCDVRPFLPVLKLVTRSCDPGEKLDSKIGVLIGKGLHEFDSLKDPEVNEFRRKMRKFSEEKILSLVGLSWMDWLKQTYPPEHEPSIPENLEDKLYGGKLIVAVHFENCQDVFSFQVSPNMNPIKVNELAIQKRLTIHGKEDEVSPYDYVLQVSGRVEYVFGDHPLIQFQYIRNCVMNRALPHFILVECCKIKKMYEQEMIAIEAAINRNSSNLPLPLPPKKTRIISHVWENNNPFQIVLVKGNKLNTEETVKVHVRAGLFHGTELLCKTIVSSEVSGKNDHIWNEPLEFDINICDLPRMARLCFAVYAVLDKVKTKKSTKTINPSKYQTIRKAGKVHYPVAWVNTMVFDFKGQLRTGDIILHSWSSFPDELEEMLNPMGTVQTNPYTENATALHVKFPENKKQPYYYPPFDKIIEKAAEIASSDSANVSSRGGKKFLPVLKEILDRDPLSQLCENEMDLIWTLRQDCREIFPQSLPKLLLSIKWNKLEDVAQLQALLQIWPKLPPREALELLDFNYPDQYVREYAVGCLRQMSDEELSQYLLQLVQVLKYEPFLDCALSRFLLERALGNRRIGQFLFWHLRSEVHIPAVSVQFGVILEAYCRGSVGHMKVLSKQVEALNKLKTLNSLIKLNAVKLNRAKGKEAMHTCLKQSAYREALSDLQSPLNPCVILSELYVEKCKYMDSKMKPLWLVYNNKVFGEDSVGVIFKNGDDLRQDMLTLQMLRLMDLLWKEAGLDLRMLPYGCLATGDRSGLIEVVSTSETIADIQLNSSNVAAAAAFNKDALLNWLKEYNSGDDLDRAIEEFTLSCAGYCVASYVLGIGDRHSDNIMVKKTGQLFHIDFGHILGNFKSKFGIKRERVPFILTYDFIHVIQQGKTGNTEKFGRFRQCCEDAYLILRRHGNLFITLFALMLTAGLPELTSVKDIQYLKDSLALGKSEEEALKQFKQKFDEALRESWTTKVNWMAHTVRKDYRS
# PIK3CA (human) = PIK3CA (human) (UniProt P42336); experiment: Inhibition of PIK3CA Kinase Activity
# Chain of PIK3CA (human) (P42336 whole entry, looked up): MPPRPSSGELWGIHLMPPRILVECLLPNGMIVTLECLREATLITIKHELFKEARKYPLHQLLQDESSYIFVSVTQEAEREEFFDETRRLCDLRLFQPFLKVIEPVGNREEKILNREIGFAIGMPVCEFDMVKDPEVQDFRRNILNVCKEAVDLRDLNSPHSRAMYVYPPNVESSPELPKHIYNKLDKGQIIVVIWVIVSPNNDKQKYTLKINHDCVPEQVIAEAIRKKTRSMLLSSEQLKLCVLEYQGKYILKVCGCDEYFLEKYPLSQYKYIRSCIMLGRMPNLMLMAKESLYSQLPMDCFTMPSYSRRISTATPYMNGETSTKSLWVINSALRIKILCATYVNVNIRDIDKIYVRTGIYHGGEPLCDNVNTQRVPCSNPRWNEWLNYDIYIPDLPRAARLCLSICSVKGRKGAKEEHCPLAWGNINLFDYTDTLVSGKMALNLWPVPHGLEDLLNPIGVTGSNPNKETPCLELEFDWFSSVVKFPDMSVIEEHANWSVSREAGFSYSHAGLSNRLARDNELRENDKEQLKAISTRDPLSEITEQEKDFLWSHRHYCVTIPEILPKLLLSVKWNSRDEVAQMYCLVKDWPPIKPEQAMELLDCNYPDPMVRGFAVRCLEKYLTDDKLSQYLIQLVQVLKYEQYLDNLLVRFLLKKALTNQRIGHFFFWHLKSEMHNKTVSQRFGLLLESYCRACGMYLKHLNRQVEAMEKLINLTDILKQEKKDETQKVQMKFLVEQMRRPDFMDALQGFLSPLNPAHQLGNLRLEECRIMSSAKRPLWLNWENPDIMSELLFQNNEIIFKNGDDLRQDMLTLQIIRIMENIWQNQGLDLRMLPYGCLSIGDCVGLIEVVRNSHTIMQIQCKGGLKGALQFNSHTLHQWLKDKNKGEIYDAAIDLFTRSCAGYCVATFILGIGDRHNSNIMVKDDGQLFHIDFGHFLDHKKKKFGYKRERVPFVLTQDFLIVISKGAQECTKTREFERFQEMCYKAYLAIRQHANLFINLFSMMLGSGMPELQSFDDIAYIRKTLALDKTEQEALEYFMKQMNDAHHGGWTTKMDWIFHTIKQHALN
# Chain of PIK3CD (Human) (O00329 whole entry, looked up): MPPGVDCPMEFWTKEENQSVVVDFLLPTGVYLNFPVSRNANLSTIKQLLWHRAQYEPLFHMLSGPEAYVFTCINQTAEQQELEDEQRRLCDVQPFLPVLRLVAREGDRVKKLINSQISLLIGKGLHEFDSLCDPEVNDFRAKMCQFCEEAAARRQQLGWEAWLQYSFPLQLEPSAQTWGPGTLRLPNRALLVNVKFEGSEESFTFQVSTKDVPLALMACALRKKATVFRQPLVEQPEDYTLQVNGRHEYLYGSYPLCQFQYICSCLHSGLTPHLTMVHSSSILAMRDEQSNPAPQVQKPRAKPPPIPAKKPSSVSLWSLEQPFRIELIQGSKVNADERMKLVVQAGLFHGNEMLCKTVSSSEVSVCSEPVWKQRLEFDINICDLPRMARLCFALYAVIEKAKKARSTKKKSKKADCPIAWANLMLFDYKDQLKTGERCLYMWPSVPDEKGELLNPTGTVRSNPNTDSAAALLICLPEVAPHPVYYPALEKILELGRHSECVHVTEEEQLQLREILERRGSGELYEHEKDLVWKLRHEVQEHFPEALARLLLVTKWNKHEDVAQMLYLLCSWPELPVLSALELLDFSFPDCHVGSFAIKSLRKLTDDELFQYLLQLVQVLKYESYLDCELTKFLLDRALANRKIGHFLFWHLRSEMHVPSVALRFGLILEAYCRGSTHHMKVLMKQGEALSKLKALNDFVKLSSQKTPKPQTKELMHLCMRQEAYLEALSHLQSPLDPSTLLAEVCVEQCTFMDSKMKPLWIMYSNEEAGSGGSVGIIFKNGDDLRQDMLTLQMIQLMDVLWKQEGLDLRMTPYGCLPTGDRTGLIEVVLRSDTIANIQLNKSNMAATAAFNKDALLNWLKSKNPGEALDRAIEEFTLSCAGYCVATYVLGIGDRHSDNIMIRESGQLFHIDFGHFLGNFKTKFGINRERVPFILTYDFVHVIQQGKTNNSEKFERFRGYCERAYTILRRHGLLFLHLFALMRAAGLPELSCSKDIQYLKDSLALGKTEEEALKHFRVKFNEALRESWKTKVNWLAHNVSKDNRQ
# Chain of PIK3CG (human) (P48736 whole entry, looked up): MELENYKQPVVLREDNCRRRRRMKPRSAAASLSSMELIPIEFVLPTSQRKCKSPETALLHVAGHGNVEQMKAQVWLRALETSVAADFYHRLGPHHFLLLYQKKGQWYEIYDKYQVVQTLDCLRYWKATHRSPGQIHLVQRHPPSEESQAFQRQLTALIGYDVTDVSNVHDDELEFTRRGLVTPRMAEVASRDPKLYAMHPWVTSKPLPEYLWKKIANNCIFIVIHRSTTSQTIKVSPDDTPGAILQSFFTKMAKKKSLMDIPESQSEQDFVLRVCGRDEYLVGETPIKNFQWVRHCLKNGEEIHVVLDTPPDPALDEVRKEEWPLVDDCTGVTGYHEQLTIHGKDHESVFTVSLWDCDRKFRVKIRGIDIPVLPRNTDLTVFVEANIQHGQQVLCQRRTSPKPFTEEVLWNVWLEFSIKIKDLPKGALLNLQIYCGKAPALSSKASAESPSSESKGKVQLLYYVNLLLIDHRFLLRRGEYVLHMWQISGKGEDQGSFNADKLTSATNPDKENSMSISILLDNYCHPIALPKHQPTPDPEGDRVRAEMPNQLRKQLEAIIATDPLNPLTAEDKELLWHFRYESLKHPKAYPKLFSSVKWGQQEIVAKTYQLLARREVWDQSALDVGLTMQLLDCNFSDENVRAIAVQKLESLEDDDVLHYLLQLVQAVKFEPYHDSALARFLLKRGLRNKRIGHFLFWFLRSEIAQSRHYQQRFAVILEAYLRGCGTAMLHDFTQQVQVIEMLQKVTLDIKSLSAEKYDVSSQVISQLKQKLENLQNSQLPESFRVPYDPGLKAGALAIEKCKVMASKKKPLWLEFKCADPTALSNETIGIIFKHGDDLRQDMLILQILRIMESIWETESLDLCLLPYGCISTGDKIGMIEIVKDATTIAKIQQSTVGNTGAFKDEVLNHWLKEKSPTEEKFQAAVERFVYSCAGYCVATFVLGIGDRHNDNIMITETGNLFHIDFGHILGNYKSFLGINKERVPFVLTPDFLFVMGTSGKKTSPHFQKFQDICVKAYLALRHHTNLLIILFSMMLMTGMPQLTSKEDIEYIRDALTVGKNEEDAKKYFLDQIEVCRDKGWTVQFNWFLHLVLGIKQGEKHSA
SMILES,EC50 (PIK3CD (Human) [1]) [nM],EC50 (PIK3CD (Human) [2]) [nM],IC50 (PIK3CG (human)) [nM],IC50 (PIK3CB (Human)) [nM],IC50 (PIK3CA (human)) [nM]
CCC(Nc1ncnc2[nH]cnc12)c1nc2ccccc2c(=O)n1-c1ccccc1 (centres undefined),4.6,84,1060,1180,9730
CC[C@H](Nc1ncnc2[nH]cnc12)c1nc2cccc(Cl)c2c(=O)n1-c1cc(F)cc(F)c1,1.6,382,804,936,7940
CCC(Nc1ncnc2[nH]cnc12)c1nc2cccc(C)c2c(=O)n1-c1cc(F)cc(F)c1 (centres undefined),–,584,1610,2440,18700
CCC(Nc1ncnc2[nH]cnc12)c1nc2cccc(Cl)c2c(=O)n1-c1c(F)cccc1F (centres undefined),30.7,298,1710,3240,11200
